Test results: US20260232767A1, “INTERLEUKIN-23 RECEPTOR ANTAGONIST PEPTIDES FOR USE IN THE TREATMENT OF PSORIASIS” (Janssen Pharmaceutica NV, priority 2023, published 2026)

Test system: subjects with moderate-to-severe plaque psoriasis
Assay: Safety, adverse events, Example 2 through Week 56
Type: in vivo, human
Conditions: 100 mg QD
From the text: The LTE safety analysis was based on randomized participants in Example who entered the present long-term extension study and received at least one dose of study intervention (including a partial dose) during the study period.

## CC(=O)NCCCC[C@@H]1NC(=O)[C@H](Cc2c[nH]c3c(C)cccc23)NC(=O)[C@H]([C@@H](C)O)NC(=O)[C@H](CC(N)=O)NC(=O)[C@@H](NC(C)=O)C(C)(C)SSC(C)(C)[C@@H](C(=O)N[C@@H](Cc2ccc(OCCN)cc2)C(=O)N[C@@H](Cc2ccc3ccccc3c2)C(=O)NC2(C(=O)N[C@@H](CCC(=O)O)C(=O)N[C@@H](CC(N)=O)C(=O)N[C@@H](Cc3cccnc3)C(=O)N(C)CC(N)=O)CCOCC2)NC1=O [IL-23 receptor antagonist peptide, Ac-[Pen]*-N-T-[W(7-Me)]-[Lys(Ac)]-[Pen]*-Phe[4-(2-aminoethoxy)]-[2-Nal]-[THP]-E-N-[3-Pal]-Sarc-NH2 (*[Pen]-[Pen]* formdisulfidebond)]
Week 16-56
  Subjects with treatment-emergent AE: Bronchitis: 0
  Subjects with treatment-emergent AE: Meniscus injury: 0
  Subjects with treatment-emergent AE: Sinusitis: 0
  Subjects with treatment-emergent AE: Urinary tract infection: 0
  Subjects with treatment-emergent serious AE: Cardiac disorders: 0
  Subjects with treatment-emergent serious AE: Cerebrovascular accident: 0
  Subjects with treatment-emergent serious AE: Coronary artery disease: 0
  Subjects with treatment-emergent serious AE: Foot deformity: 0
  Subjects with treatment-emergent serious AE: General disorders and administration site conditions: 0
  Subjects with treatment-emergent serious AE: Injury, poisoning and procedural complications: 0
  Subjects with treatment-emergent serious AE: Ligament injury: 0
  Subjects with treatment-emergent serious AE: Neoplasms benign, malignant and unspecified (incl cysts and polyps): 0
  Subjects with treatment-emergent serious AE: Nervous system disorders: 0
  Subjects with treatment-emergent serious AE: Non-cardiac chest pain: 0
  Subjects with treatment-emergent serious AE: Respiratory, thoracic and mediastinal disorders: 0
  Subjects with treatment-emergent serious AE: Tonsillar hypertrophy: 0
  Subjects with treatment-emergent serious AE: Uterine leiomyoma: 0
  Subjects with treatment-emergent serious AE: Ventricular dysfunction: 0
Through Week 56
  Acrochordon: % of subjects: (2.3%)
  Acrochordon: number of subjects: 1
  Actinic keratosis: number of subjects: 0
  Alopecia: number of subjects: 0
  Asthenia: number of subjects: 0
  Asthma: % of subjects: (2.3%)
  Asthma: number of subjects: 1
  Atrioventricular block first degree: % of subjects: (2.3%)
  Atrioventricular block first degree: number of subjects: 1
  Basal cell carcinoma: number of subjects: 0
  Blood and lymphatic system disorders: number of subjects: 0
  Bronchitis chronic: % of subjects: (2.3%)
  Bronchitis chronic: number of subjects: 1
  Bundle branch block right: number of subjects: 0
  Cardiac disorders: % of subjects: (2.3%)
  Cardiac disorders: number of subjects: 1
  Chills: % of subjects: (2.3%)
  Chills: number of subjects: 1
  Cholelithiasis: % of subjects: (2.3%)
  Cholelithiasis: number of subjects: 1
  Chronic obstructive pulmonary disease: % of subjects: (2.3%)
  Chronic obstructive pulmonary disease: number of subjects: 1
  Coronary artery disease: number of subjects: 0
  Cough: % of subjects: (7.0%)
  Cough: number of subjects: 3
  Decreased appetite: number of subjects: 0
  Depression: % of subjects: (2.3%)
  Depression: number of subjects: 1
  Dermal cyst: number of subjects: 0
  Dermatitis acneiform: number of subjects: 0
  Dermatitis contact: % of subjects: (2.3%)
  Dermatitis contact: number of subjects: 1
  Diabetes mellitus: number of subjects: 0
  Diffuse alopecia: number of subjects: 0
  Dysuria: number of subjects: 0
  Ear and labyrinth disorders: % of subjects: (2.3%)
  Ear and labyrinth disorders: number of subjects: 1
  Endocrine disorders: number of subjects: 0
  Eye disorders: number of subjects: 0
  Eyelid skin dryness: number of subjects: 0
  Fatigue: % of subjects: (2.3%)
  Fatigue: number of subjects: 1
  General disorders and administration site conditions: % of subjects: (7.0%)
  General disorders and administration site conditions: number of subjects: 3
  Goiter: number of subjects: 0
  Haemochromatosis: number of subjects: 0
  Hand dermatitis: number of subjects: 0
  Hematuria: number of subjects: 0
  Hepatobiliary disorders: % of subjects: (2.3%)
  Hepatobiliary disorders: number of subjects: 1
  Hypercholesterolemia: % of subjects: (2.3%)
  Hypercholesterolemia: number of subjects: 1
  Hyperglycemia: % of subjects: (2.3%)
  Hyperglycemia: number of subjects: 1
  Hyperlipidemia: number of subjects: 0
  Hypertension: % of subjects: (2.3%)
  Hypertension: number of subjects: 1
  Hypertransaminasemia: number of subjects: 0
  Hypertriglyceridemia: number of subjects: 0
  Hypoacusis: number of subjects: 0
  Immune system disorders: number of subjects: 0
  Influenza like illness: number of subjects: 0
  Insomnia: % of subjects: (2.3%)
  Insomnia: number of subjects: 1
  Intertrigo: number of subjects: 0
  Ketonuria: number of subjects: 0
  Leukocyturia: % of subjects: (2.3%)
  Leukocyturia: number of subjects: 1
  Leukopenia: number of subjects: 0
  Libido decreased: % of subjects: (2.3%)
  Libido decreased: number of subjects: 1
  Liver disorder: number of subjects: 0
  Lymphopenia: number of subjects: 0
  Menopause: number of subjects: 0
  Metabolism and nutrition disorders: % of subjects: (4.7%)
  Metabolism and nutrition disorders: number of subjects: 2
  Neoplasms benign, malignant and unspecified (incl cysts and polyps): % of subjects: (2.3%)
  Neoplasms benign, malignant and unspecified (incl cysts and polyps): number of subjects: 1
  Nephrolithiasis: % of subjects: (2.3%)
  Nephrolithiasis: number of subjects: 1
  Neutropenia: number of subjects: 0
  Night sweats: number of subjects: 0
  Non-cardiac chest pain: number of subjects: 0
  Ocular cyst: number of subjects: 0
  Oedema peripheral: % of subjects: (2.3%)
  Oedema peripheral: number of subjects: 1
  Oropharyngeal pain: % of subjects: (2.3%)
  Oropharyngeal pain: number of subjects: 1
  Procedural pain: number of subjects: 0
  Productive cough: number of subjects: 0
  Proteinuria: number of subjects: 0
  Pruritus: % of subjects: (2.3%)
  Pruritus: number of subjects: 1
  Psoriasis: number of subjects: 0
  Psychiatric disorders: % of subjects: (7.0%)
  Psychiatric disorders: number of subjects: 3
  Pyrexia: number of subjects: 0
  Rash pruritic: number of subjects: 0
  Renal and urinary disorders: % of subjects: (4.7%)
  Renal and urinary disorders: number of subjects: 2
  Renal mass: number of subjects: 0
  Respiratory, thoracic and mediastinal disorders: % of subjects: (9.3%)
